Measured values taken from ChEMBL document CHEMBL5537149, “Design, synthesis, and lead optimization of piperazinyl-pyrimidine analogues as potent small molecules targeting the viral capping machinery of Chikungunya virus” (Eur J Med Chem, 2024).
In brackets after ≈: the same amount, converted by molar mass. Activity calls are given as the source filed them. The rule behind the calls is not given here.

Tests used:
[1] = tested on: Caco-2; assay: Cytotoxicity against human Caco-2 cells incubated for 24 to 72 hrs by MTT assay; format: toxicity, cell-based; conditions: time 24-72 hrs
[2] = tested on: Chikungunya virus; assay: Antiviral activity against Chikungunya virus infected in African green monkey Vero cells assessed as reduction in viral induced cell death incubated for 5 days by MTS reagent based absorbance method; format: functional, organism-based; conditions: 120 h
[3] = Cytotoxicity against African green monkey Vero cells assessed as reduction in overall metabolic activity incubated for 5 days by MTS reagent based absorbance method; format: toxicity, cell-based; conditions: chlorocebus sabaeus, time 5 day
[4] = Selectivity index, ratio of CC50 for cytotoxicity against African green monkey Vero cells to EC50 for antiviral activity against Chikungunya virus infected in African green monkey Vero cells assessed as reduction in viral induced cell death; format: toxicity, cell-based; conditions: read-out: Ratio CC50/EC50
[5] = Metabolic stability in human liver microsomes assessed as half-life preincubated for 5 mins followed by NADPH addition and measured upto 60 mins by HPLC-MS/MS analysis; format: ADME, Microsome; conditions: time < 65 min
[6] = Aqueous solubility of compound at pH 7.4 by HPLC analysis; format: physicochemical
[7] = tested on: Caco-2; assay: Induction of apoptosis in human Caco-2 cells assessed as increase in caspase-3 expression at 6.25 to 100 uM incubated for 72 hrs by Western blot analysis; format: toxicity, cell-based; conditions: caco-2, 72 h, dose 6.25-100 µM
[8] = tested on: Caco-2; assay: Induction of apoptosis in human Caco-2 cells assessed as increase in PARP expression at 6.25 to 100 uM incubated for 72 hrs by Western blot analysis; format: toxicity, cell-based; conditions: caco-2, 72 h, dose 6.25-100 µM
[9] = tested on: Chikungunya virus; assay: Antiviral activity against Chikungunya virus 899 infected in African green monkey Vero cells assessed as reduction in viral RNA replication preincubated for 2 hrs with subsequent viral infected followed by media replacement with compound and measured after 48 hrs by qRT-PCR analysis; format: functional, organism-based; conditions: dose 0.25-60 µM, time 50.0 hrs
[10] = tested on: Chikungunya virus; assay: Fold resistance , ratio of EC50 for antiviral activity against CHVB-resistant Chikungunya virus infected in African green monkey Vero cells to EC50 for antiviral activity against wildtype Chikungunya virus 899 infected in African green monkey Vero cells; format: functional
[11] = tested on: Chikungunya virus; assay: (§1) Antiviral activity against Chikungunya virus 899 infected in African green monkey Vero cells assessed as log10 reduction in intracellular viral level at 2.22 uM preincubated for 2 hrs with subsequent viral infected followed by media replacement with compound and measured after 48 hrs by qRT-PCR analysis; format: functional; conditions: time 50 hrs
[12] = tested on: Semliki Forest virus; assay: Antiviral activity against Semliki forest virus infected in African green monkey Vero cells assessed as reduction in virus induced cell death; format: functional, organism-based
[13] = tested on: Sindbis virus; assay: Antiviral activity against Sindbis virus HRsp infected in African green monkey Vero cells assessed as reduction in virus induced cell death; format: functional, organism-based
[14] = tested on: Enterovirus; assay: Antiviral activity against Human enterovirus 71 infected in African green monkey Vero cells assessed as reduction in virus induced cell death; format: functional, organism-based
[15] = tested on: Zika virus; assay: Antiviral activity against Zika virus infected in African green monkey Vero cells assessed as reduction in virus induced cell death; format: functional, organism-based
[16] = tested on: Chikungunya virus; assay: as §1, with “60” for “2.22”; format: functional; conditions: time 50 hrs

| SMILES | Activity [1] | EC50 [2] | CC50 at 120 h [3] | selectivity ratio [4] | half-life [5] | solubility [6] | Activity [7] | Activity [8] | Activity [9] | Ratio EC50 [10] | log(activity) [11] | Activity [12] | Activity [13] | Activity [14] | Activity [15] | log(activity) [16] |
| --- | --- | --- | --- | --- | --- | --- | --- | --- | --- | --- | --- | --- | --- | --- | --- | --- |
| CCNc1nc(C)cc(N2CCN(C(=O)c3ccc(I)cc3)CC2)n1 | Non-Toxic | 0.7 µM | 58 µM | 82 | > 60 min | 112 µM (≈ 50.5 µg/mL) | Non-Toxic | Non-Toxic |  |  |  |  |  |  |  |  |
| CCNc1cc(C)nc(N2CCN(C(=O)c3cccc([N+](=O)[O-])c3)CC2)n1 |  | 4.2 µM | > 100 µM | > 24 | 57 min | 119 µM (≈ 44.1 µg/mL) |  |  |  |  |  |  |  |  |  |  |
| CCNc1nc(C)cc(N2CCN(C(=O)c3ccc([N+](=O)[O-])cc3Cl)CC2)n1 | Non-Toxic | > 0.78 µM | > 100 µM |  | > 60 min | 111 µM (≈ 44.9 µg/mL) | Non-Toxic | Non-Toxic | Dose-Dependent Effect | 15.1 |  |  |  |  |  |  |
| Cc1cc(N(C)C)nc(N2CCN(C(=O)c3ccc(Br)cc3)CC2)n1 |  | 13 µM | 76 µM | 6.02 | 29 min | 114 µM (≈ 46.1 µg/mL) |  |  |  |  |  |  |  |  |  |  |
| CCNc1nc(C)cc(N2CCN(C(=O)c3ccccc3)CC2)n1 |  | 2.05 µM | > 308 µM | > 150 | > 60 min | > 120 µM |  |  |  |  |  |  |  |  |  |  |
| CCNc1nc(C)cc(N2CCN(C(=O)c3ccc(OC)cc3)CC2)n1 | Non-Toxic | 1.4 µM | 136 µM | 97 | > 60 min | > 120 µM | Non-Toxic | Non-Toxic |  |  |  |  |  |  |  |  |
| CCNc1nc(C)cc(N2CCN(C(=O)c3ccc(C)c(C)c3)CC2)n1 |  | 0.95 µM | 65 µM | 68 | > 60 min | 118 µM (≈ 41.7 µg/mL) |  |  |  |  |  |  |  |  |  |  |
| CCNc1cc(C)nc(N2CCN(C(=O)c3ccc(Br)cc3)CC2)n1 |  | 9.58 µM | > 100 µM | > 10 | > 60 min | 116 µM (≈ 46.9 µg/mL) |  |  |  |  |  |  |  |  |  |  |
| CCNc1nc(C)cc(N2CCN(C(=O)c3cccc([N+](=O)[O-])c3)CC2)n1 | Non-Toxic | 0.7 µM | > 100 µM | > 143 | > 60 min | > 120 µM | Non-Toxic | Non-Toxic | Dose-Dependent Effect | 13.3 | ~4.5 |  |  |  |  |  |
| CCCC(=O)N1CCN(c2nc(C)cc(NCC)n2)CC1 |  | 67 µM |  |  |  | > 120 µM |  |  |  |  |  | inactive | inactive | inactive | inactive |  |
| CNc1nc(C)cc(N2CCN(S(=O)(=O)c3ccc(F)cc3)CC2)n1 |  | 11 µM | 99 µM | 9.2 | > 60 min | > 120 µM |  |  |  |  |  |  |  |  |  |  |
| Cc1cc(N2CCN(S(=O)(=O)c3ccc(Cl)cc3)CC2)nc(NC(C)C)n1 |  | 3.8 µM | 19 µM | 4.9 | 54 min | 76 µM (≈ 31.2 µg/mL) |  |  |  |  |  |  |  |  |  |  |
| CCNc1cc(C)nc(N2CCN(C(=O)c3ccc(I)cc3)CC2)n1 |  | 2.9 µM | > 100 µM | > 34 | > 60 min | 116 µM (≈ 52.4 µg/mL) |  |  |  |  |  |  |  |  |  |  |
| CCNc1ccnc(N2CCN(S(=O)(=O)c3ccc(Cl)cc3)CC2)n1 |  | 10 µM | 28 µM | 2.7 | 19 min | 94 µM (≈ 35.9 µg/mL) |  |  |  |  |  |  |  |  |  |  |
| CCNc1nc(C)cc(N2CCCC(NC(=O)c3cc(Cl)cc(Cl)c3)C2)n1 (stereo not drawn) |  | > 100 µM | 12 µM | < 0.12 | 44 min | 22 µM (≈ 8.98 µg/mL) |  |  |  |  |  |  |  |  |  |  |
| CCNc1cc(C)nc(N2CCN(C(=O)c3cccc(Br)c3)CC2)n1 |  | 5.1 µM | > 100 µM | > 20 | 9.5 min | > 120 µM |  |  |  |  |  |  |  |  |  |  |
| CCNc1cc(C)nc(N2CCN(C(=O)c3ccc(Cl)cc3)CC2)n1 |  | 2.4 µM | 89 µM | 37 | > 60 min | > 120 µM |  |  |  |  |  |  |  |  |  |  |
| CCNc1ccnc(N2CCN(C(=O)c3ccc(F)cc3)CC2)n1 |  | 3.9 µM | 183 µM | 47 | > 60 min | > 120 µM |  |  |  |  |  |  |  |  |  |  |

| SMILES | Activity [1] | EC50 [2] | CC50 at 120 h [3] | selectivity ratio [4] | half-life [5] | solubility [6] | Activity [7] | Activity [8] | Activity [9] | Ratio EC50 [10] | log(activity) [11] | Activity [12] | Activity [13] | Activity [14] | Activity [15] | log(activity) [16] |
| --- | --- | --- | --- | --- | --- | --- | --- | --- | --- | --- | --- | --- | --- | --- | --- | --- |
| CCNc1nc(C)cc(N2CCN(C(=O)c3ccc(Br)cc3)CC2)n1 | Non-Toxic | 0.6 µM | > 96 µM | > 159 | > 60 min | > 120 µM | Non-Toxic | Non-Toxic | Dose-Dependent Effect | 8.9 | ~4.5 |  |  |  |  | >5 |
| CCNc1nc(C)cc(N2CCN(C(=O)c3ccc(C(C)(C)C)cc3)CC2)n1 |  | 2.4 µM | 45 µM | 19 | > 60 min | 120 µM (≈ 45.8 µg/mL) |  |  |  |  |  |  |  |  |  |  |
| CCNc1nc(C)cc(N2CCN(C(=O)c3cc(Cl)cc(Cl)c3)CC2)n1 | Non-Toxic | 0.47 µM | 80 µM | 173 | > 60 min | 108 µM (≈ 42.6 µg/mL) | Non-Toxic | Non-Toxic | Dose-Dependent Effect | 9.7 |  |  |  |  |  |  |
| CCNc1nc(C)cc(N2CCN(C(=O)c3ccc(Cl)c(Cl)c3)CC2)n1 | Non-Toxic | 0.57 µM | 46 µM | 81 | > 60 min | 111 µM (≈ 43.8 µg/mL) | Non-Toxic | Non-Toxic |  |  |  |  |  |  |  |  |
| CCCS(=O)(=O)N1CCN(c2nc(C)cc(NCC)n2)CC1 |  | 70 µM |  |  |  | > 120 µM |  |  |  |  |  | inactive | inactive | inactive | inactive |  |
| CCNc1nc(C)cc(N2CCN(C(=O)c3ccc(Cl)c([N+](=O)[O-])c3)CC2)n1 |  | 0.98 µM | > 20 µM | > 20 | > 60 min | > 120 µM |  |  |  |  |  |  |  |  |  |  |
| CCNc1ccnc(N2CCN(C(=O)c3ccc(Cl)cc3)CC2)n1 |  | 15 µM | 47 µM | 3.1 | > 60 min | > 120 µM |  |  |  |  |  |  |  |  |  |  |
| CCNc1cc(C)nc(N2CCN(S(=O)(=O)c3ccc4ccccc4c3)CC2)n1 |  | 10 µM | 17 µM | 1.7 | 20 min | 90 µM (≈ 37 µg/mL) |  |  |  |  |  |  |  |  |  |  |
| CCNc1nc(C)cc(N2CCN(C(=O)c3ccc(F)cc3)CC2)n1 | Non-Toxic | 1.52 µM | 165 µM | 109 | > 60 min | > 120 µM | Non-Toxic | Non-Toxic |  |  |  | inactive | inactive | inactive | inactive |  |
| CCNc1nc(C)cc(N2CCN(C(=O)c3cccc(Br)c3)CC2)n1 | Non-Toxic | 0.94 µM | > 100 µM | > 107 | > 60 min | > 120 µM | Non-Toxic | Non-Toxic |  |  |  |  |  |  |  |  |
| CCNc1nc(C)cc(N2CCN(C(=O)c3ccc(Cl)c(C(F)(F)F)c3)CC2)n1 |  | 1.9 µM | > 20 µM | > 11 | > 60 min | 101 µM (≈ 43.2 µg/mL) |  |  |  |  |  |  |  |  |  |  |
| CCNc1cc(C)nc(NC2CCN(C(=O)c3cc(Cl)cc(Cl)c3)CC2)n1 |  | 12 µM | 25 µM | 2.02 | 30 min | 94 µM (≈ 38.4 µg/mL) |  |  |  |  |  |  |  |  |  |  |
| CCNc1nc(C)cc(N2CCN(C(=O)c3cccc(Cl)c3)CC2)n1 |  | 6.6 µM | 248 µM | 38 | > 60 min | > 120 µM |  |  |  |  |  |  |  |  |  |  |
| CCNc1nc(C)cc(N2CCN(C(=O)c3cccc(I)c3)CC2)n1 |  | 1 µM | > 100 µM | > 98 | 42 min | > 120 µM |  |  |  |  |  |  |  |  |  |  |
| CNc1ccnc(N2CCN(S(=O)(=O)c3ccc(F)cc3)CC2)n1 |  | 9.62 µM | 193 µM | 20 | 48 min | > 120 µM |  |  |  |  |  |  |  |  |  |  |
| CCNc1nc(C)cc(N2CCN(S(=O)(=O)c3ccc(Cl)cc3)CC2)n1 |  | 2.76 µM | 11 µM | 3.9 | 49 min | 104 µM (≈ 41.2 µg/mL) |  |  |  |  |  |  |  |  |  |  |
| CCNc1nc(C)cc(N2CCN(Cc3ccc(F)cc3)CC2)n1 |  | 22 µM | 46 µM | 2.1 | > 60 min | 106 µM (≈ 34.9 µg/mL) |  |  |  |  |  |  |  |  |  |  |
